# Assay results published in patent US20160067311A1, “USE OF ELSIGLUTIDE TO TREAT GASTROINTESTINAL MUCOSITIS INCLUDING CHEMOTHERAPY-INDUCED DIARRHEA” (Helsinn Healthcare SA, priority 2014, published 2016).
# “Also recorded” adds a separate entry of the source. Like-named read-outs stand apart in the source and are kept apart here. Peptide text beside a SMILES is read from it.
# Assays:
# [1] = Clinical pharmacokinetics of elsiglutide and its metabolites (studies 06-013, TIDE-09-04, TIDE-11-10); conditions: for dose dependence of pharmacokinetics (Cmax and AUC increases proportional to dose): study TIDE-09-04, s.c. on 4 consecutive days
# Experimental: Data on human exposure to elsiglutide generated so far originate from three clinical trials, one performed in healthy subjects (study 06-013) and two in cancer patients (TIDE-09-04, TIDE-11-10). The main objective of the first two studies was the evaluation of the safety, tolerability and maximum tolerated dose (MTD) of ascending elsiglutide doses administered as s.c. (both studies) and i.v. (only study 06-013) bolus injections. In study 06-013 elsiglutide was administered as single i.v. or s.c. bolus, while in study TIDE-09-04 each dose was administered as s.c. bolus on 4 consecutive days. Study TIDE-11-10 was a phase II proof of concept study that mainly evaluated the efficacy of elsiglutide administered as 24 mg daily s.c. bolus injections for 4 consecutive days in preventing CID in patients with colorectal cancer receiving 5-FU based chemotherapy (FOLFOX4 or FOLFIRI regimen). The secondary objectives of all three studies included the evaluation of the pharmacokinetics of elsiglutide and its major metabolites in humans.
# [2] = system: rats; test: Preclinical 5-Fluorouracil (5-FU)-induced small intestinal atrophy and diarrhea in rats; conditions: 400 nmol/kg
# [3] = system: patients with colorectal cancer receiving 5-FU based chemotherapy (FOLFOX4 or FOLFIRI regimen); test: Study TIDE-11-10 phase II proof of concept, prevention of chemotherapy induced diarrhea (CID); type: in vivo, human
# Experimental: (§1) The formulation used in clinical trials is a lyophilized sterile powder for s.c. administration after reconstitution with sterile water for injection. […] This study also included an evaluation of the levels of citrulline, an amino acid mainly produced by enterocytes, a decrease of which is indicative of an intestinal mucosal damage following chemotherapy. […] In addition, safety and tolerability of the administered repeated doses of elsiglutide were evaluated, and the pharmacokinetics (PK) of elsiglutide and its metabolites ZP2242 and ZP2712 were investigated in a subset of patients in each treatment arm.
# Methodology: This was a phase II, multicenter, double-blind, randomized, placebo-controlled, two-stage, proof of concept study with an interim futility analysis in colorectal cancer patients receiving 5-FU-based chemotherapy (FOLFOX4 or FOLFIRI) and administered elsiglutide subcutaneously (s.c.) for 4 consecutive days.
# (§2) 138 patients received a daily dose of 24 mg elsiglutide (or placebo practically identical in composition to the active study drug) via a single s.c. injection for 4 consecutive days, starting from the first day of chemotherapy administration. The patients were hospitalized at least until Day 3. Further visits were scheduled for Days 4, 5 and 15 and for a Follow-up Visit on Day 28-32. Safety and tolerability were monitored throughout the study.
# Diagnosis and Main Criteria for Inclusion: Female and male patients of at least 18 years of age with confirmed diagnosis of colorectal cancer and an Eastern Cooperative Oncology
# Group (ECOG) performance status ≦2, chemotherapy-naïve, and scheduled to receive a FOLFOX4 or FOLFIRI chemotherapy regimen.
# Efficacy: The endpoint of primary interest was: • Number of patients experiencing no diarrhea from Day 1 to Day 14
# Secondary endpoints were: • Proportion of patients experiencing grades ≧2 diarrhea at each day from Day 1 to Day 14 according to National Cancer Institute Common Terminology Criteria for Adverse Events (NCI-CTCAE v. 4.03); • Worst grade of diarrhea according to NCI-CTCAE at each day from Day 1 to Day 14; • Time to occurrence of diarrhea, defined as the first day in which a grade ≧1 diarrhea was assessed (from Day 1 to day 14); • Number of days with presence of grade ≧1 diarrhea (from Day 1 to Day 14); • Number of days with presence of grade ≧2 diarrhea (from Day 1 to Day 14); • Number of days with presence of at least one bowel movement accompanied by urgency (from Day 1 to 14); • Number of days with presence of at least one episode of fecal incontinence (from Day 1 to 14); • Proportion of patients who required i.v. fluids due to CID (from Day 1 to 14); • Proportion of patients who required changes to the primary therapy (chemotherapy dose reduction, delay or change to regimen) due to CID as of Day 2, Day 14 and as of Day 28; • Proportion of patients who used rescue medication (i.e. medication used for treatment of diarrhea) from Day 1 to Day 14.
# (§3) In addition, the proportion of patients who were limited concerning self-care Activities of Daily Living (ADL), the number of stools per day, the number of bowel movements accompanied by urgency per day, and the number of episodes of fecal incontinence per day were summarized for Day 1 to Day 14. Mean blood concentrations of citrulline (a biomarker for intestinal integrity, a decrease being indicative of an intestinal mucosal damage following chemotherapy) were summarized by treatment group for baseline, Day 5, and Day 15 including changes compared to baseline.
# [4] = system: patients with colorectal cancer receiving 5-FU based chemotherapy (FOLFOX4 or FOLFIRI regimen); test: Study TIDE-11-10 safety (treatment-emergent adverse events); type: in vivo, human; conditions: elsiglutide group, 69 patients, 24 mg/day s.c. for 4 days
# From the text: (§4) In studies TIDE-09-04 and TIDE-11-10 the overall pattern of TEAEs was as expected for patients with cancer receiving chemotherapy. In both studies the safety profiles of elsiglutide and placebo were generally similar. More patients in the elsiglutide group reported TEAEs compared to patients in the placebo group, mostly due to injection site reactions in the elsiglutide group.
# (§5) In study TIDE-09-04, out of the 28 treated patients (21 on active treatment and 7 on placebo), 9 (32.1%; 7 patients in elsiglutide group and 2 patients in placebo group) experienced at least one TEAE judged by the investigator to be at least possibly related to treatment. In study TIDE-11-10, out of the 138 treated patients (69 on elsiglutide and 69 on placebo), 8 (11.6%), all in the elsiglutide group, had at least one TEAE judged by the investigator to be at least possibly related to study-drug. The most frequent related TEAEs overall in both studies were injection site events (in particular injection site erythema and injection site pain) followed by constipation.
# as §2, with “The patients were hospitalized at least until Day 3. Further visits were scheduled for Days 4, 5 and 15 and for a Follow-up Visit on Day 28-32.” left out
# [5] = system: healthy volunteers; test: Study 06-013 dose-escalation, safety, tolerability and MTD, single i.v. or s.c. bolus in healthy subjects; type: in vivo, human
# From the text: Thirteen of 27 subjects included in this study experienced at least 1 treatment-emergent adverse event (TEAE) judged by the investigator as having either a possible, probable or definitive relation to the study medication. The most commonly reported related TEAEs being postural dizziness, nausea, and injection site erythema.
# [6] = system: citrulline; test: Study TIDE-11-10 mean blood concentrations of citrulline (biomarker for intestinal integrity); type: in vivo, human
# Experimental: as §1, §3
# [7] = system: healthy subjects and colon and colorectal cancer patients; test: Human safety data across the clinical studies (06-013, TIDE-09-04, TIDE-11-10); type: in vivo
# From the text: (§6) Safety data in humans are derived from two phase I dose-escalation studies and one phase II study, which included 202 human subjects (36 healthy subjects and 166 colon and colorectal cancer patients receiving 5-FU-based chemotherapy), 117 of whom received active treatment.
# as §4
# [8] = system: rats; test: Preclinical irinotecan-induced diarrhea and intestinal damage in rats
# [9] = system: cancer patients receiving 5-FU-based chemotherapy; test: Study TIDE-09-04 dose-escalation, safety and tolerability, s.c. bolus on 4 consecutive days in cancer patients; type: in vivo, human
# From the text: as §6
# In the second dose-escalation study (TIDE-09-04) in cancer patients an independent data safety monitoring board supervised the dose escalation process.
# as §5
# [10] = GLP-2(1-33); DPP IV degradation and renal clearance; cited from earlier work
# [11] = Day 1 to Day 14, Full Analysis Set, 24 mg/day, N = 69
# [12] = Day 1 to Day 14, Intent-to-treat Set, 24 mg/day, N = 69
molecule,measurement,setting,value
CC[C@H](C)[C@H](NC(=O)[C@H](CC(C)C)NC(=O)[C@H](Cc1c[nH]c2ccccc12)NC(=O)[C@H](C)NC(=O)[C@@H](NC(=O)[C@H](Cc1ccccc1)NC(=O)[C@H](CC(=O)O)NC(=O)[C@H](CCCNC(=N)N)NC(=O)[C@H](C)NC(=O)[C@H](C)NC(=O)[C@H](CC(C)C)NC(=O)[C@H](C)NC(=O)[C@H](CC(=O)O)NC(=O)[C@H](CC(C)C)NC(=O)[C@@H](NC(=O)[C@@H](NC(=O)[C@H](CO)NC(=O)[C@H](CC(C)C)NC(=O)[C@H](CCC(=O)O)NC(=O)[C@H](CO)NC(=O)[C@H](CO)NC(=O)[C@H](Cc1ccccc1)NC(=O)[C@H](CO)NC(=O)CNC(=O)[C@H](CCC(=O)O)NC(=O)CNC(=O)[C@@H](N)Cc1c[nH]cn1)[C@@H](C)O)[C@@H](C)CC)[C@@H](C)CC)C(=O)N[C@@H](C)C(=O)N[C@H](C(=O)N[C@@H](CCCCN)C(=O)N[C@H](C(=O)N[C@H](C(=O)N[C@@H](CC(=O)O)C(=O)N[C@@H](CCCCN)C(=O)N[C@@H](CCCCN)C(=O)O)[C@@H](C)O)[C@@H](C)CC)[C@@H](C)O [ZP2712] (H-HGEGSFSSELSTILDALAARDFIAWLIATKITDKK-OH; N-terminus assumed),exposure to metabolite relative to exposure to the parent ZP1846 (elsiglutide),[1]; Day 1,> 4 fold
same,half-life,"[1]; human, plasma",6 to 9 h
same,dose dependence of pharmacokinetics (Cmax and AUC increases proportional to dose),[1],dose independent
CC[C@H](C)[C@H](NC(=O)[C@H](CC(C)C)NC(=O)[C@H](Cc1c[nH]c2ccccc12)NC(=O)[C@H](C)NC(=O)[C@@H](NC(=O)[C@H](Cc1ccccc1)NC(=O)[C@H](CC(=O)O)NC(=O)[C@H](CCCNC(=N)N)NC(=O)[C@H](C)NC(=O)[C@H](C)NC(=O)[C@H](CC(C)C)NC(=O)[C@H](C)NC(=O)[C@H](CC(=O)O)NC(=O)[C@H](CC(C)C)NC(=O)[C@@H](NC(=O)[C@@H](NC(=O)[C@H](CO)NC(=O)[C@H](CC(C)C)NC(=O)[C@H](CCC(=O)O)NC(=O)[C@H](CO)NC(=O)[C@H](CO)NC(=O)[C@H](Cc1ccccc1)NC(=O)[C@H](CO)NC(=O)CNC(=O)[C@H](CCC(=O)O)NC(=O)CNC(=O)[C@@H](N)Cc1c[nH]cn1)[C@@H](C)O)[C@@H](C)CC)[C@@H](C)CC)C(=O)N[C@@H](C)C(=O)N[C@H](C(=O)N[C@@H](CCCCN)C(=O)N[C@H](C(=O)N[C@H](C(=O)N[C@@H](CC(=O)O)C(=O)N[C@@H](CCCCN)C(=O)N[C@@H](CCCCN)C(=O)N[C@@H](CCCCN)C(=O)N[C@@H](CCCCN)C(=O)N[C@@H](CCCCN)C(=O)N[C@@H](CCCCN)C(N)=O)[C@@H](C)O)[C@@H](C)CC)[C@@H](C)O [elsiglutide] (H-HGEGSFSSELSTILDALAARDFIAWLIATKITDKKKKKK-NH2; N-terminus assumed),half-life,"[1]; human, plasma, iv",0.4 h
same,bioavailability,"[1]; human, plasma, subcutaneous",0.29
same,dose dependence of pharmacokinetics (Cmax and AUC increases proportional to dose),[1],dose independent
same,5-Fluorouracil (5-FU)-induced small intestinal atrophy and diarrhea,[2],prevents
same,body weight loss (5-FU model),[2],attenuates
same,mortality (5-FU model),[2],decreases
same,effect on the occurrence of grade ≧2 diarrhea,[3]; 24 mg daily s.c. for 4 consecutive days,preventive effect
same,evidence of efficacy,[3]; 24 mg/day s.c. on 4 consecutive days,some evidence of efficacy
same,"Worst grade of diarrhea NCI-CTCAE v4.03: Grade 0, %",[3]; [11],(62.3) %
same,"Worst grade of diarrhea NCI-CTCAE v4.03: Grade 1, %",[3]; [11],(30.4) %
same,"Worst grade of diarrhea NCI-CTCAE v4.03: Grade 2, %",[3]; [11],(5.8) %
same,"Worst grade of diarrhea NCI-CTCAE v4.03: Grade 3, %",[3]; [11],(1.4) %
same,"Worst grade of diarrhea NCI-CTCAE v4.03: Grade <2, %",[3]; [11],(92.8) %
same,"Worst grade of diarrhea NCI-CTCAE v4.03: Grade ≧2, %",[3]; [11],(7.2) %
same,"Non-responders, %",[3]; [12],(37.7) %
same,"Responders (patients experiencing no diarrhea), %",[3]; [12],(62.3) %
same,superiority of elsiglutide over placebo in number of responders,"[3]; overall trial, Stage 1 and Stage 2, 69 patients per group",could not be statistically demonstrated
same,patients with at least one TEAE at least possibly related to study-drug (number),[4],8 patients
same,patients with at least one TEAE at least possibly related to study-drug (percentage),[4],11.6%
same,"subjects with at least 1 TEAE with possible, probable or definitive relation to study medication","[5]; of 27 subjects, study 06-013",Thirteen
same,maximum tolerated dose (MTD) i.v.,"[5]; single i.v. bolus, healthy volunteers, stopping-rule AE at 19.2 mg i.v.",9.6 mg
same,maximum tolerated dose (MTD) s.c.,"[5]; single s.c. bolus, healthy volunteers, stopping-rule AE at 6 mg s.c.",3 mg
same,"change of mean citrulline level between Baseline and Day 5, compared with placebo group",[6]; Baseline to Day 5,less pronounced decrease
same,Mean citrulline level at Day 15,"[6]; Day 15, elsiglutide group, 24 mg/day on days 1-4",36.5 µmol/L
same,Mean citrulline level at baseline,"[6]; baseline, elsiglutide group",33.5 µmol/L
same,deaths or SAEs related to the study drug,[7]; all three studies,No deaths or SAEs related to the study drug
same,serious or severe injection site reactions,[7]; studies TIDE-09-04 and TIDE-11-10,No serious or severe injection site reactions
same,body weight loss and lethality (irinotecan model),[8],decreases
same,irinotecan induced severe intestinal damage (histopathological observations),[8],drastically reduces
same,"severity of irinotecan-induced diarrhea, including late-onset diarrhea",[8],decreases
same,dose limiting toxicities,[9]; 93 mg/day administered for 4 consecutive days,no dose limiting toxicity; also recorded: no dose limiting toxicities
same,patients with at least one TEAE at least possibly related to treatment,"[9]; elsiglutide group, 21 on active treatment, TIDE-09-04",7 patients
HADGSFSDEMNTILDNLAARDFINWLIQTKITD [GLP-2],half-life,[10],about 7 minutes
